Measured values published in US20230321083A1, “Inhibitors of GPR174 and Uses Thereof” (Omeros Corporation, priority 2016, published 2023).
“And” between values parts separate entries of the source, which are not always exact repeats. Identical values can stand only once.

Experiments:
Assay type in all cases: cell-based
CHRM1 = test: Cellular Redistribution Assay (CRA) against CHRM1; details: FIG. 5B
Excerpt: (§1) The inventors used a CRA similar to that described in U.S. Pat. No. 7,309,576 and O'Dowd et al., J. Biomol. Screen. 12:175-85, 2007 to identify compounds that are capable of interacting with GPR174 using a library of approximately 370,000 chemical entities. Briefly described, the CRA assay described in U.S. Pat. No. 7,309,576 involves artificially inserting a NLS into the dopamine D1 receptor (DRD1), which allows the receptor to traffic from the cell membrane to the cell interior, and that the binding of antagonists to the receptor retained the receptor at the cell surface, while removal of the ligand allowed the receptor to continue to internalize from the cell surface. Both antagonists and agonists that selectively bound the receptor retained the receptor on the plasma membrane. GPR174 constructs were generated for use in a CRA-based compound screening assay. From this screen, the inventors initially identified compounds of formula I-VI, as described herein and included in TABLE 1.
The inventors also sought to validate that the compounds identified using the CRA are modulatory compounds. To this end, the above-described CRA was used to screen a library for compounds that interact with three control non-orphan receptors, and the results of this screen were compared to the results of screening the same library for compound that were identified using a Fluorometric Imaging Plate Reader (FLIPR) assay, a conventional technique commonly used to identify compounds interacting with non-orphan GPCRs signaling through Ca+. Three non-orphan GPCRs—Muscarinic acetylcholine receptor M1 (CHRM1), Adrenergic receptor alpha 1a (ADRA1a), and Neuropeptide S receptor (NPSR)—were screened against a 10,000-compound GPCR-focused library. Thirty interacting compound “hits” were identified using the CRA, and eighty-one hits were identified using the FLIPR for the CHRM1 receptor; 9 CRA hits and 29 FLIPR hits for the NPS receptor were identified; and 110 CRA hits and 110 FLIPR hits for ADRA1a.
In addition, the CRA can also provide the relative potencies of compounds against the target receptor.

ADBR2 = target: T1, ADBR2 (Homo sapiens, UniProt P07550); test: CRE-Luc reporter Gs signaling assay, control receptor ADBR2
T1 construct: host or cells: HEK293 or CHO cell lines (ATCC)
T1 sequence (P07550 whole entry): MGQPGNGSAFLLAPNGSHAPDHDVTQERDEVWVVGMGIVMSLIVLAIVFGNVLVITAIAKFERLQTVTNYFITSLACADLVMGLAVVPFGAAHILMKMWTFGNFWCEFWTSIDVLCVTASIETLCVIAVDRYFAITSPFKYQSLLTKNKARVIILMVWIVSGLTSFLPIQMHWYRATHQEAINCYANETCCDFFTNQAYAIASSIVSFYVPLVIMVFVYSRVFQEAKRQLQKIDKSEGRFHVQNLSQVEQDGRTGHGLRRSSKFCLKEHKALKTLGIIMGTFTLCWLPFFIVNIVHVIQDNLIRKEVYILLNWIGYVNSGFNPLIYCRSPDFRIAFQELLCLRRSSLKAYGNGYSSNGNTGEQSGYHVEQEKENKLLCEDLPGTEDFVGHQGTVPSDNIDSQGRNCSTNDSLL
Experimental: (§2) Compounds were tested in the reporter system with increasing concentrations of GPR174-interacting compounds. GPR174 construct pCMV6-XL4-GPR174 or ADBR2, reporter of interest, pCRE-Luc or GL4.29 (3000 ng), and TK-renilla as an internal control (10 ng) with lipofectamine 2000 (60 ug) (Invitrogen, CA) according to the manufacturer's directions.
(§3) The DNA/lipofectamine 2000 mix (3000 μL) was incubated at room temperature for 30 minutes and then added into a 10 cm culture dish (Corning, NY) containing 70-90% confluent cultured cells, typically HEK293 or CHO cell lines (ATCC, VA), in 15 mL of media. The cells were further incubated for 4-6 hours at 37° C. and then media were removed and cells were detached with 2 mL trypsin (Life Technologies, CA). Media (26 mL) were added to the detached cells and 120 μL of transfected cells were transferred to each well on a 96-well plate. Increasing concentration of each compound in DMSO (1.2 μl) was added to the cells after plating into the 96-well plate. The cells were further incubated at 37° C. for various times. The media were removed and the cells lysed. Luciferase and renilla activities were measured with the Dual-luciferase assay system (Promega, WI) according to the manufacturer's directions. Typically, lysis buffer (25 μL) was added to the cells and incubated at room temperature for 20-30 minutes to allow for the cells to lyse. The lysate (10 μL) was measured for luciferase and renilla activity with LARII and Stop&Glo reagent (50 μL each) with a SpectraMax L (Molecular Devices, CA). Data were analyzed with either Excel (Microsoft, WA) or Prism 4.03 (GraphPad, CA).
(§4) ADBR2 is a GPCR, like GPR174, that activates the Gs signaling pathway.

GPR174 [1] = target: T2, GPR174 (Homo sapiens, UniProt Q9BXC1); test: CRE-Luc reporter Gs signaling assay, cells transfected with GPR174; set-up: host or cells: HEK293 or CHO cell lines (ATCC); details: for effect on Gs pathway in the presence of GPR174: CRE-Luc reporter; for nature of compound in GPR174 signaling assay: human GPR174 with pCRE-Luc
Experimental: as §2, §3, §4
Target sequence in this assay (Q9BXC1 whole entry): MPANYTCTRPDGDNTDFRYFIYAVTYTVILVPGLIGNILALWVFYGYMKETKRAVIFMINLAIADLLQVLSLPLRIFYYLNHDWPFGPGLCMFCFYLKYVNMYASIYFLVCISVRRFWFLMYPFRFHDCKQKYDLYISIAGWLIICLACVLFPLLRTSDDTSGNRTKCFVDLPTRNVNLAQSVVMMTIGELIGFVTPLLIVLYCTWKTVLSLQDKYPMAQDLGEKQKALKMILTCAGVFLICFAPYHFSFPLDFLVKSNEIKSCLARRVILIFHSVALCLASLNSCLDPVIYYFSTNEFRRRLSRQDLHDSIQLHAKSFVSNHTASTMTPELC

GPR174 [2] = target: T2, GPR174; test: Cellular Redistribution Assay (CRA) against GPR174; set-up: fused on or other part: No tag or reporter is given; details: for dose-response in CRA against GPR174: FIG. 5A; for EC50: multiple values = separate experiments
Excerpt: One method for identifying compounds capable of modulating a receptor is using a cellular redistribution assay (“CRA”). Exemplary CRA methods are found in U.S. Pat. No. 7,309,576 issued to O'Dowd et al. and in O'Dowd et al., J. Biomol. Screen. 12:175-85, 2007. […] Incorporation of the NLS alters the cellular localization of the GPCR, such that the majority of the NLS-modified receptor is present in the cell interior. An NLS-modified GPCR, when interacting with a functionally active compound, is mostly localized on the cell surface. Thus, it becomes possible to identify receptor modulators without knowledge of the endogenous ligand or a surrogate ligand.
The inventors have identified a number of compounds that inhibit GPR174 using a CRA assay similar to that described in U.S. Pat. No. 7,309,576 and in O'Dowd et al., J. Biomol. Screen. 12:175-85, 2007. These compounds are described in detail below.
as §1
Target sequence in this assay (Q9BXC1 1-290 limits assumed): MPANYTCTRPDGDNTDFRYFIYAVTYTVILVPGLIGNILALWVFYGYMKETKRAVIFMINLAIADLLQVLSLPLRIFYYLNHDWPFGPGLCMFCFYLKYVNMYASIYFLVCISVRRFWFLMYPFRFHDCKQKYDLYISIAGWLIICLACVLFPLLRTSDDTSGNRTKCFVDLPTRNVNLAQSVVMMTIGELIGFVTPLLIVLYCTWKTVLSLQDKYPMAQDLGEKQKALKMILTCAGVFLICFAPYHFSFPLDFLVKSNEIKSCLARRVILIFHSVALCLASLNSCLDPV

human PBMCs = test: Cytokines in culture supernatants of stimulated human PBMCs (ELISA / LEGENDplex); details: data not shown
Experimental: The effect of compound #10 on IL-2 and IFN-γ production in human PBMCs was determined as follows. PBMCs from a single donor were adjusted to a density of 2×10^6 cells/mL, stimulated with 100 ng/mL of anti-CD3 and 100 ng/mL of anti-CD28 antibodies and treated with 1 μM, 3 μM, or 10 μM of compound #10. Supernatant from these cells was taken on day 2 post-stimulation and the levels of IL-2 and IFN-γ were determined by ELISA assay using Ready-SET-Go ELISA kits from Affimetrix Ebioscience according to the manufacturer's instructions.
The effect of compound #10 on IL-2 production in human PBMCs was determined as follows. […] Supernatant from these cells was taken on day 3 post-stimulation and the levels of IL-2 were determined by ELISA assay using Ready-SET-Go™ ELISA kits from Affimetrix Ebioscience and LEGENDplex™ bead-based immunoassays from BioLegend according to the manufacturer's instructions.
The effect of compound #10 on IL-2 production in human PBMC from each donor was determined as follows. PBMC from each donor were adjusted to a density of 2×10^6 cells/mL, stimulated with 100 ng/mL of anti-CD3 and 100 ng/mL of anti-CD28 antibodies and treated with 30 μM compound #10. Supernatant from these cells was taken on day 2 post-stimulation and the levels of IL-2 were determined by ELISA assay using LEGENDplex™ bead-based immunoassays from BioLegend (San Diego, CA) according to the manufacturer's instructions.
The effect of compound #10 on the production of a panel of additional cytokines (interleukin 5 (IL-5), interleukin 13 (IL-13), interleukin 6 (IL-6), interleukin 9 (IL-9), interleukin 10 (IL-10), interferon gamma (IFN-γ), tumor necrosis factor alpha (TNF-α), interleukine 17A (IL-17A), interleukin 17F (IL-17F), interleukin 4 (IL-4) and interleukin 22 (IL-22)) in pooled human PBMC obtained from eight donors was determined as follows. PBMC from eight donors were pooled, then adjusted to a density of 2×10^6 cells/mL, stimulated with 100 ng/mL of anti-CD3 and 100 ng/mL of anti-CD28 antibodies and treated with 30 μM compound #10. Supernatant from these cells was taken on day 2 post-stimulation and the levels of IL-5, IL-13, IL-6, IL-9, IL-10, IFN-γ, TNF-α, IL-17A, IL-17F, IL-4 and IL-22 were determined by ELISA using LEGENDplex™ bead-based immunoassays from BioLegend (San Diego, CA) according to the manufacturer's instructions.

effect on Gs pathway in the presence of ADBR2 (ADBR2)	effect on Gs pathway in the presence of GPR174 (GPR174 [1])	Human GPR174 CRE Activity: nature of compound (GPR174 [1])	nature of compound in GPR174 signaling assay (GPR174 [1])	Compound	further results
did not inhibit the Gs pathway	inhibited the Gs pathway	–	–	CCOC(=O)N1CCN(c2cc(N3CCC(C)CC3)c(F)cc2[N+](=O)[O-])CC1 [Compound 1]	activity in CRA against CHRM1 (CHRM1): do not show any activity against CHRM1; dose-response in CRA against GPR174 (GPR174 [2]): show a dose-response curve against GPR174
–	–	Antagonist or allosteric modulator	–	CC(=O)c1ccc(N2CCN(C(=O)c3ccc(F)cc3)CC2)c(F)c1 [Compound 3]	activity in CRA against CHRM1 (CHRM1): do not show any activity against CHRM1; dose-response in CRA against GPR174 (GPR174 [2]): show a dose-response curve against GPR174
did not inhibit the Gs pathway	inhibited the Gs pathway	–	–	O=C(c1ccccc1)N1CCN(c2cc(N3CCCCC3)c(F)cc2[N+](=O)[O-])CC1 [Compound 6]	IL-2 levels in PBMC cultures (human PBMCs): increased IL-2 levels
did not inhibit the Gs pathway	inhibited the Gs pathway	–	–	CCOC(=O)N1CCN(c2cc(N3CCCCC3)c(F)cc2[N+](=O)[O-])CC1 [Compound 7]	–
did not inhibit the Gs pathway	inhibited the Gs pathway	–	–	O=[N+]([O-])c1cc(F)c(N2CCCCC2)cc1N1CCN(S(=O)(=O)c2ccccc2)CC1 [Compound 11]	EC50 (GPR174 [2]): 1.5 µM
–	–	–	–	CC1CCN(c2cc(N3CCN(C(=O)c4cccs4)CC3)c([N+](=O)[O-])cc2F)CC1 [Compound 12]	EC50 (GPR174 [2]): 0.3 µM
did not modulate the Gs pathway	did not modulate the Gs pathway	Antagonist or allosteric modulator	non-modulators	Cc1ccc(-c2nnc(Nc3ccccc3)c3ccccc23)cc1S(N)(=O)=O [Compound 19]	–
–	–	Antgonist or allosteric modulator	non-modulators	Cc1ccccc1Nc1nnc(-c2ccc(C)c(S(N)(=O)=O)c2)c2ccccc12 [Compound 20]	activity in CRA against CHRM1 (CHRM1): do not show any activity against CHRM1; dose-response in CRA against GPR174 (GPR174 [2]): show a dose-response curve against GPR174
did not modulate the Gs pathway	did not modulate the Gs pathway	Antagonist or allosteric modulator	non-modulator	Cc1cc(Cc2ccc(NC(=O)c3cccs3)c(C)c2)ccc1NC(=O)c1cccs1 [Compound 21]	–
did not inhibit the Gs pathway	inhibited the Gs pathway	–	–	COc1ccc(C2C3=C(CCCC3=O)NC3=C2C(=O)c2ccccc23)cc1 (stereo not drawn) [Compound 22]	EC50 (GPR174 [2]): 6.7 µM and 5.3 µM
did not inhibit the Gs pathway	inhibited the Gs pathway	–	–	CCOc1ccc(C2C3=C(CCCC3=O)NC3=C2C(=O)c2ccccc23)cc1 (stereo not drawn) [Compound 23]	–
did not inhibit the Gs pathway	inhibited the Gs pathway	–	–	CCCCOc1ccc(C2C3=C(CCCC3=O)NC3=C2C(=O)c2ccccc23)cc1 (stereo not drawn) [Compound 31]	–
did not inhibit the Gs pathway	inhibited the Gs pathway	–	–	O=C1CCCC2=C1C(c1ccc(OCCO)cc1)C1=C(N2)c2ccccc2C1=O (stereo not drawn) [Compound 33]	–
did not inhibit the Gs pathway	inhibited the Gs pathway	–	–	O=C1CCCC2=C1C(c1ccc3c(c1)OCCO3)C1=C(N2)c2ccccc2C1=O (stereo not drawn) [Compound 36]	–
did not inhibit the Gs pathway	inhibited the Gs pathway	–	–	O=C1CCCC2=C1C(c1ccncc1)C1=C(N2)c2ccccc2C1=O (stereo not drawn) [Compound 42]	–
–	–	–	inverse agonist	C=C(C)COc1ccc(NC(=O)Nc2ccccc2)cc1 [Compound 56]	–

Compound	effect on Gs pathway in the presence of ADBR2 (ADBR2)	effect on Gs pathway in the presence of GPR174 (GPR174 [1])	Human GPR174 CRE Activity: nature of compound (GPR174 [1])	nature of compound in GPR174 signaling assay (GPR174 [1])	further results
O=C(N/N=C/c1cc(Cl)ccc1O)c1ccncc1 [Compound 57]	–	–	Antagonist or allosteric modulator	GPR174 antagonists or allosteric modulators	EC50 (GPR174 [2]): 5.6 µM
Cc1cc(C(=O)N/N=C/c2cc(Br)ccc2O)c(C)o1 [Compound 58]	–	–	Antagonist or allosteric modulator	GPR174 antagonists or allosteric modulators	EC50 (GPR174 [2]): 3.7 µM
